Measured values taken from US8632789B2, “System and method for delivery of DNA-binding chemotherapy drugs using nanoparticles” (Syracuse University, priority 2010, dated 2014).

Assay: Thermal denaturation (melting) of DNA-capped AuNP by UV-vis at 260 nm as a function of DOX loading
Type: physicochemical
Settings: control studies, r=12; [DOX]=5.9 μM; [AuNP]=13.7 nM
Method: To probe the uptake of DOX via intercalation to 1ab-AuNP, we investigated the thermal denaturation of the 1ab strands by measuring increase in extinction at 260 nm using UV-visible spectroscopy (UV-vis).
We next utilized the 1ab- or 2ab-AuNP prepared above, with dsDNA-functionalization, for drug (DOX) loading. For each DOX binding and melting experiment, 1ab- or 2ab-AuNP were incubated for 40 min with DOX at specific ratios, r=[DOX]/[1ab/2ab]. In this study, we explored r=0-12, based on the number of 1ab per AuNP, as well as the number of binding sites at each 1ab. Next, each DOX-1ab-AuNP was analyzed via thermal denaturation melting experiments using temperature controlled UV-vis at Abs=260 nm and a heating rate of 1° C./min from 25° C. to 80° C. Each melting temperature was taken as the maximum of a peak-fitted first derivative plot of its corresponding melting curve (using PeakFit® Peak Separation and Analysis Software, V.4.12).
UV-visible Absorption (UV-vis): The UV-vis measurements were collected on a Varian Cary100 Bio UV-vis spectrophotometer between 200-900 nm. The instrument is equipped with an 8-cell automated holder with high precision Peltier heating controller.

SMILES: COc1cccc2c1C(=O)c1c(O)c3c(c(O)c1C2=O)C[C@@](O)(C(=O)CO)C[C@@H]3O[C@H]1C[C@H](N)[C@H](O)[C@H](C)O1 [DOX, doxorubicin]
- Cooperative melting in the temperature range of ~55-65° C.: not observed
